From PubChem BioAssay AID330 (DTP/NCI, 2004) come the findings set out here.

Several values for one entry are separate records, joined by “and”; a condition that tells them apart may be missing. Equal entries are not always repeated. Toxic doses and inconclusive results are not listed.

In the experiment the test system is P388 leukemia ip, CD2F1 mice, survival T/C. As to the kind of experiment: NCI In Vivo Anticancer Drug Screen. Data for tumor model P388 Leukemia (intraperitoneal) in CD2F1 (CDF1) mice. The conditions noted are these: endpoint: median survival time, higher = longer survival. Put shortly: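 Mice carrying the transplanted tumor received test compound or vehicle. Survival was recorded in each group, and the value is the treated-group measurement divided by that of the vehicle-treated control group.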

[1] abbreviates: dose: 50.0 mg/kg/injection, schedule: Q01DX005 (ip), vehicle: Klucel (hydroxypropylcellulose) (HPC).

Turning to `BrC1CCCCC(Br)C12OCCO2` (stereo not given), the T/C (dose: 100.0 mg/kg/injection, schedule: Q04DX003 (ip), vehicle: saline) was 107 % of control; the T/C (dose: 200.0 mg/kg/injection, schedule: Q04DX003 (ip), vehicle: saline) is 104 % of control; the T/C (dose: 400.0 mg/kg/injection, schedule: Q04DX003 (ip), vehicle: saline) is 106 % of control.

On to `O=C1OI(OI2OC(=O)c3ccccc32)c2ccccc21`, for which the T/C was 102 % of control and 116 % of control (dose: 15.0 mg/kg/injection, schedule: Q01DX005 (ip), vehicle: Klucel (hydroxypropylcellulose) (HPC)); 104 % of control and 92 % of control (dose: 30.0 mg/kg/injection, schedule: Q01DX005 (ip), vehicle: Klucel (hydroxypropylcellulose) (HPC)); 100 % of control and 101 % of control and 113 % of control (dose: 60.0 mg/kg/injection, schedule: Q01DX005 (ip), vehicle: Klucel (hydroxypropylcellulose) (HPC)); 101 % of control and 113 % of control (dose: 120.0 mg/kg/injection, schedule: Q01DX005 (ip), vehicle: Klucel (hydroxypropylcellulose) (HPC)).

As for `CCCCCCCCCCNCCSSCCNC(C)=O`, the T/C is, setting by setting: (dose: 1.56 mg/kg/injection, schedule: Q01DX005 (ip), vehicle: Klucel (hydroxypropylcellulose) (HPC)) 103 % of control; (dose: 3.12 mg/kg/injection, schedule: Q01DX005 (ip), vehicle: Klucel (hydroxypropylcellulose) (HPC)) 100 % of control; (dose: 6.25 mg/kg/injection, schedule: Q01DX005 (ip), vehicle: Klucel (hydroxypropylcellulose) (HPC)) 105 % of control; (dose: 12.5 mg/kg/injection, schedule: Q01DX005 (ip), vehicle: Klucel (hydroxypropylcellulose) (HPC)) 104 % of control; (dose: 25.0 mg/kg/injection, schedule: Q01DX005 (ip), vehicle: Klucel (hydroxypropylcellulose) (HPC)) 102 % of control; under setting [1], 98 % of control and 103 % of control.

On to `O=S(Cl)C(Cl)=C(Cl)Cl` (stereo not given), for which the T/C was 106 % of control under setting [1]; 104 % of control (dose: 100.0 mg/kg/injection, schedule: Q01DX005 (ip), vehicle: Klucel (hydroxypropylcellulose) (HPC)); 103 % of control (dose: 200.0 mg/kg/injection, schedule: Q01DX005 (ip), vehicle: Klucel (hydroxypropylcellulose) (HPC)).

In the case of `CCCCn1c(C)nc2ccccc21`, the T/C is, setting by setting: (dose: 50.0 mg/kg/injection, schedule: Q01DX005 (ip), vehicle: saline with Tween-80) 100 % of control; (dose: 100.0 mg/kg/injection, schedule: Q01DX005 (ip), vehicle: saline with Tween-80) 100 % of control.

Turning to `C/C=C/C=C/c1cc2cc3c(c(O)c2c(=O)[nH]1)C1(CC3)C(O)=c2c(=O)c3c(=O)cc(OC)c(=O)c=3c(=O)c2=C1O` (stereo not given), the T/C runs as follows: (dose: 0.12 mg/kg/injection, schedule: Q01DX009 (ip), vehicle: other) 116 % of control; (dose: 0.25 mg/kg/injection, schedule: Q01DX009 (ip), vehicle: other) 118 % of control; (dose: 0.5 mg/kg/injection, schedule: Q01DX009 (ip), vehicle: other) 87 % of control and 100 % of control; (dose: 0.75 mg/kg/injection, schedule: Q01DX009 (ip), vehicle: Klucel (hydroxypropylcellulose) (HPC)) 98 % of control; (dose: 1.0 mg/kg/injection, schedule: Q01DX009 (ip), vehicle: other) 113 % of control; (dose: 1.5 mg/kg/injection, schedule: Q01DX009 (ip), vehicle: Klucel (hydroxypropylcellulose) (HPC)) 99 % of control. In addition, the T/C (dose: 1.5 mg/kg/injection, schedule: Q01DX009 (ip), vehicle: saline with Tween-80) is 112 % of control; the T/C (dose: 6.0 mg/kg/injection, schedule: Q01DX009 (ip), vehicle: Klucel (hydroxypropylcellulose) (HPC)) is 156 % of control; the T/C (dose: 8.0 mg/kg/injection, schedule: Q01DX009 (ip), vehicle: other) was 123 % of control; the T/C (dose: 12.0 mg/kg/injection, schedule: Q01DX009 (ip), vehicle: Klucel (hydroxypropylcellulose) (HPC)) is 192 % of control; the T/C (dose: 12.0 mg/kg/injection, schedule: Q01DX009 (ip), vehicle: saline with Tween-80) was 87 % of control; the T/C (dose: 63.0 micrograms/kg/injection, schedule: Q01DX009 (ip), vehicle: other) is 101 % of control. Also, the T/C (dose: 63.0 micrograms/kg/injection, schedule: Q01DX009 (ip), vehicle: water) was 101 % of control and 110 % of control; the T/C (dose: 125.0 micrograms/kg/injection, schedule: Q01DX009 (ip), vehicle: other) was 99 % of control; the T/C (dose: 125.0 micrograms/kg/injection, schedule: Q01DX009 (ip), vehicle: water) was 112 % of control and 119 % of control; the T/C (dose: 250.0 micrograms/kg/injection, schedule: Q01DX009 (ip), vehicle: other) was 102 % of control; the T/C (dose: 250.0 micrograms/kg/injection, schedule: Q01DX009 (ip), vehicle: water) is 119 % of control and 120 % of control; the T/C (dose: 500.0 micrograms/kg/injection, schedule: Q01DX009 (ip), vehicle: other) was 114 % of control. The T/C reads like this: (dose: 500.0 micrograms/kg/injection, schedule: Q01DX009 (ip), vehicle: water) 153 % of control; (dose: 1000.0 micrograms/kg/injection, schedule: Q01DX009 (ip), vehicle: other) 115 % of control; (dose: 1000.0 micrograms/kg/injection, schedule: Q01DX009 (ip), vehicle: water) 160 % of control and 178 % of control; (dose: 2000.0 micrograms/kg/injection, schedule: Q01DX009 (ip), vehicle: water) 175 % of control.

On to `Cn1c[n+](C2OC(CO)C(O)C2O)c2nc(N)[nH]c(=O)c21` (stereo not given), for which the T/C (dose: 50.0 mg/kg/injection, schedule: Q01DX005 (ip), vehicle: saline) was 119 % of control; the T/C (dose: 100.0 mg/kg/injection, schedule: Q01DX005 (ip), vehicle: saline) was 105 % of control; the T/C (dose: 200.0 mg/kg/injection, schedule: Q01DX005 (ip), vehicle: saline) is 115 % of control.

As to `O=[n+]1c2c(n([O-])c3cc(Cl)c(Cl)cc31)CCCCC2`, the T/C (dose: 50.0 mg/kg/injection, schedule: Q01DX009 (ip), vehicle: saline with Tween-80) was 91 % of control; the T/C (dose: 100.0 mg/kg/injection, schedule: Q01DX009 (ip), vehicle: saline with Tween-80) is 99 % of control; the T/C (dose: 200.0 mg/kg/injection, schedule: Q01DX009 (ip), vehicle: saline with Tween-80) was 99 % of control.

`Cc1nn(C(=O)c2ccncc2)c(C)c1N=Nc1ccccc1[N+](=O)[O-]`: the T/C was 102 % of control (dose: 50.0 mg/kg/injection, schedule: Q01DX009 (ip), vehicle: Klucel (hydroxypropylcellulose) (HPC)); 96 % of control (dose: 100.0 mg/kg/injection, schedule: Q01DX009 (ip), vehicle: Klucel (hydroxypropylcellulose) (HPC)); 98 % of control (dose: 200.0 mg/kg/injection, schedule: Q01DX009 (ip), vehicle: Klucel (hydroxypropylcellulose) (HPC)).

With `CCc1cccc2c(NCCCCCCCCNc3c4ccccc4nc4c(CC)cccc34)c3ccccc3nc12`, the T/C reads like this: (dose: 0.63 mg/kg/injection, schedule: Q01DX005 (ip), vehicle: other) 110 % of control; (dose: 1.25 mg/kg/injection, schedule: Q01DX005 (ip), vehicle: other) 110 % of control; (dose: 2.5 mg/kg/injection, schedule: Q01DX005 (ip), vehicle: other) 122 % of control; (dose: 3.75 mg/kg/injection, schedule: Q01DX005 (ip), vehicle: other) 104 % of control; (dose: 5.0 mg/kg/injection, schedule: Q01DX005 (ip), vehicle: other) 113 % of control; (dose: 7.5 mg/kg/injection, schedule: Q01DX005 (ip), vehicle: other) 118 % of control. Also, under “dose: 10.0 mg/kg/injection, schedule: Q## X009 (ip), vehicle: lactic acid”, the T/C was 110 % of control.

As to `C1=C(/N=NNc2ccccc2)CCCCCC/1`, the T/C (dose: 50.0 mg/kg/injection, schedule: Q01DX005 (ip), vehicle: Klucel + Tween-80) is 102 % of control; the T/C (dose: 100.0 mg/kg/injection, schedule: Q01DX005 (ip), vehicle: Klucel + Tween-80) was 100 % of control; the T/C (dose: 200.0 mg/kg/injection, schedule: Q01DX005 (ip), vehicle: Klucel + Tween-80) was 104 % of control.

As for `N=C1N=Nc2nc(C(C(=O)c3cccc([N+](=O)[O-])c3Cl)c3nc4n(c3O)C(=N)N=N4)c(O)n21` (stereo not given), the T/C is 106 % of control (dose: 60.0 mg/kg/injection, schedule: Q01DX005 (ip), vehicle: saline with Tween-80); 105 % of control (dose: 120.0 mg/kg/injection, schedule: Q01DX005 (ip), vehicle: saline with Tween-80); 106 % of control (dose: 240.0 mg/kg/injection, schedule: Q01DX005 (ip), vehicle: saline with Tween-80).

As to `COc1ccc(OC)c2c(=O)c(C)c(C(=O)O)[nH]c12`, the T/C is 103 % of control (dose: 100.0 mg/kg/injection, schedule: Q01DX001 (ip), vehicle: alkali diluted with saline); 100 % of control (dose: 200.0 mg/kg/injection, schedule: Q01DX001 (ip), vehicle: alkali diluted with saline); 98 % of control (dose: 400.0 mg/kg/injection, schedule: Q01DX001 (ip), vehicle: alkali diluted with saline).
